Test results from ChEMBL document CHEMBL1201862, “PubChem BioAssay data set” (2004).
Calls of active or inactive are those of the source.

Assays:
[1] = molecular target: Luciferin 4-monooxygenase (Photinus pyralis, UniProt P08659); test: firefly luciferase enzyme inhibitors, dose response, biochemical, luminescence (AID 1891)
[2] = Luminescence Cell-Based Dose Confirmation HTS to Identify Inhibitors of Platelet Dense Granule Release. [Related pubchem assays: 1663 (Primary HTS), 1678 (Summary of Project)]; type: functional
[3] = molecular target: T1, Short transient receptor potential channel 4 (Mus musculus, UniProt Q9QUQ5); test: mouse TRPC4 channel inhibitors, dose response, cell-based, HEK293 TRPC4/mu-opioid, Fluo-4 calcium (AID 434942); type: functional;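 also: potency of inhibitors blocking the TRPC4 calcium response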
T1 sequence (Q9QUQ5 whole entry): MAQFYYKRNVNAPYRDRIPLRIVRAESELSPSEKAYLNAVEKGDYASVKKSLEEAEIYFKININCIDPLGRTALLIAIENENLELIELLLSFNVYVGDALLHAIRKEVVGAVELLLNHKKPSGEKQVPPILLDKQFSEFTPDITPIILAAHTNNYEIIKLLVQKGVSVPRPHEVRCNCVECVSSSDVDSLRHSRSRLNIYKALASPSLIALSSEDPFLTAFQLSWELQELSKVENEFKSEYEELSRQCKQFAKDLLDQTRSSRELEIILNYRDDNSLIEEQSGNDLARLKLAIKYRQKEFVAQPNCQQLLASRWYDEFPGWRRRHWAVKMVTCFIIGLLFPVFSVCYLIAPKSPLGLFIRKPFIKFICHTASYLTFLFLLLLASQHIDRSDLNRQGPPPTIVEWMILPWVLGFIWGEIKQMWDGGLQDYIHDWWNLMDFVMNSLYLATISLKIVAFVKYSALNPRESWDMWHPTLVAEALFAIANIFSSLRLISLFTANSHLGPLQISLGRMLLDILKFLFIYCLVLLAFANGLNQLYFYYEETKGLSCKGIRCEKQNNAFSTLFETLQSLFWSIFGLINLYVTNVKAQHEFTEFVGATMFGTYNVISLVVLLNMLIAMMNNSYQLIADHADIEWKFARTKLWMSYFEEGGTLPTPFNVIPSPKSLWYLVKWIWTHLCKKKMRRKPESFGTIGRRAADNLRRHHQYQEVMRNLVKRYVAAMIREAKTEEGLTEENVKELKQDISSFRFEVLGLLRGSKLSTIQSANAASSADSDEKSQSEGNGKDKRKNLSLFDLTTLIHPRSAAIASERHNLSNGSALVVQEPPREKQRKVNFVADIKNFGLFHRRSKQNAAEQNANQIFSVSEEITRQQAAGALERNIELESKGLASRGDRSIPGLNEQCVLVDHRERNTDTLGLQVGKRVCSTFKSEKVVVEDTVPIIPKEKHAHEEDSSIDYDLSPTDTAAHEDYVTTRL

H9c2 = test: cells; type: functional, cell-based; conditions: Rattus norvegicus, H9c2, Myocardium;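 also: confirmatory concentration-response retest of ultra-high-throughput screening hits for modulation of myocardial damage; cell death induced by hydrogen peroxide oxidative stress; compound pretreatment for 60 min then peroxide exposure for 2 h; potency is for protecting the cells against peroxide damage rather than for killing them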
Cytochrome P450 2C19 = Cytochrome P450 2C19 (Homo sapiens, UniProt P33261); test: Cytochrome panel assay with activity outcomes. Panel member name: p450-cyp2c19 Compounds with AC50 equal or less than 10 uM are considered active; type: functional; conditions: read-out: AC50
Cytochrome P450 3A4 = Cytochrome P450 3A4 (Homo sapiens, UniProt P08684);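 also: CYP3A4 tested as one member of a cytochrome P450 panel screen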
Cytochrome P450 2C9 = Cytochrome P450 2C9 (Homo sapiens, UniProt P11712)
Cytochrome P450 1A2 = molecular target: T2, Cytochrome P450 1A2 (Homo sapiens, UniProt P05177);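 also: PubChem cytochrome P450 panel assay, CYP1A2 panel member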
T2 sequence (P05177 whole entry): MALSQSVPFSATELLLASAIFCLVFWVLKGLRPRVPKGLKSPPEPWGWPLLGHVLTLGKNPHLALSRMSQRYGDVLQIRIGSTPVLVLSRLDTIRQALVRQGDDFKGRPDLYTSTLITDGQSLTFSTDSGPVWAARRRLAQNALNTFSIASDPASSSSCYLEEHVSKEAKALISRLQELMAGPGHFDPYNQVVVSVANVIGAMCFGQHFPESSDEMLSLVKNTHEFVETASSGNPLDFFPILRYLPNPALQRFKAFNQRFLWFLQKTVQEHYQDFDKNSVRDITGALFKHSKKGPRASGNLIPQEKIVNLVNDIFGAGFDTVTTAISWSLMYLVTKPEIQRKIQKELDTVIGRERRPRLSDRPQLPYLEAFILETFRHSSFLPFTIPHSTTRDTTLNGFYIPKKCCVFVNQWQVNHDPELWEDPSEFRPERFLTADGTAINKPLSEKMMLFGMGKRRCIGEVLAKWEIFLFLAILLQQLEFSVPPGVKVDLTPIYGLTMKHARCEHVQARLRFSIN

[4] = molecular target: T3, Rac GTPase-activating protein 1 (Homo sapiens, UniProt Q9H0H5); test: MgcRacGAP GTPase-activating activity inhibitors, confirmation, biochemical, ADP Hunter fluorescence, primary and confirmatory (AID 624330); type: functional
T3 sequence (Q9H0H5 whole entry): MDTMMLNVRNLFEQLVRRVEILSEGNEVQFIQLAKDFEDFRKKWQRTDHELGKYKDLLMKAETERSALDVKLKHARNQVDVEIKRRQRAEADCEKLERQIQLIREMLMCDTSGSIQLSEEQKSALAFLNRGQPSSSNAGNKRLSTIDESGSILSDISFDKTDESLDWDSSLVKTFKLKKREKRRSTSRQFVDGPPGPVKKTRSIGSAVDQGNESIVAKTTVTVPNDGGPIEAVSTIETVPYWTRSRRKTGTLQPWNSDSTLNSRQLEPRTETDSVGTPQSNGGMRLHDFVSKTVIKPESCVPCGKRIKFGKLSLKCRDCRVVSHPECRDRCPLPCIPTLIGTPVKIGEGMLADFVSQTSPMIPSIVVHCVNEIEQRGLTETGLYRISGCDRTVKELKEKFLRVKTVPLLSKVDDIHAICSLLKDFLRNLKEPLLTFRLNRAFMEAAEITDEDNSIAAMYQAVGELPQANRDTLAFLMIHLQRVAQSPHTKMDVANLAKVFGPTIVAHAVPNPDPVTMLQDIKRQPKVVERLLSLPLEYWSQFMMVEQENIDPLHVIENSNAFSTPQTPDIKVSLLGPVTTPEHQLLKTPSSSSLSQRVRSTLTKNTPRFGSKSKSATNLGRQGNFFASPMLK

[5] = Luminescence Cell-Based Dose Retest to Confirm Inhibitors of Cancer Stem Cells. [Related pubchem assays (depositor defined):AID2717, AID2721]; type: functional; conditions: Homo sapiens
[6] = inhibitors of SNCA 5'UTR-driven reporter translation, confirmation, H4 neuroglioma cells, luminescence (AID 1988); type: functional, cell-based
[7] = molecular target: T4, RNA-binding protein pos-1 (Caenorhabditis elegans, UniProt G5EF15); test: inhibitors of POS-1/mex-3 RNA binding, dose response, biochemical, fluorescence polarization (AID 1964);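 also: purified POS-1 fused to maltose binding protein made in E. coli; potency of compounds blocking POS-1 binding to fluorescent RNA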
T4 sequence (G5EF15 whole entry): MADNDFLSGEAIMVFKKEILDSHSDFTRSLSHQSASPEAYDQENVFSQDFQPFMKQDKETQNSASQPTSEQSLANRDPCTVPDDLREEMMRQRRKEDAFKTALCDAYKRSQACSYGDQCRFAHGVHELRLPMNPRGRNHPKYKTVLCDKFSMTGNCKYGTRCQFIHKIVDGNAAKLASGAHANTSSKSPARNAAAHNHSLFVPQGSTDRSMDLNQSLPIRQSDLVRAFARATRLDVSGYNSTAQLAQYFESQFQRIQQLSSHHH

Sequence of Luciferin 4-monooxygenase (P08659 whole entry): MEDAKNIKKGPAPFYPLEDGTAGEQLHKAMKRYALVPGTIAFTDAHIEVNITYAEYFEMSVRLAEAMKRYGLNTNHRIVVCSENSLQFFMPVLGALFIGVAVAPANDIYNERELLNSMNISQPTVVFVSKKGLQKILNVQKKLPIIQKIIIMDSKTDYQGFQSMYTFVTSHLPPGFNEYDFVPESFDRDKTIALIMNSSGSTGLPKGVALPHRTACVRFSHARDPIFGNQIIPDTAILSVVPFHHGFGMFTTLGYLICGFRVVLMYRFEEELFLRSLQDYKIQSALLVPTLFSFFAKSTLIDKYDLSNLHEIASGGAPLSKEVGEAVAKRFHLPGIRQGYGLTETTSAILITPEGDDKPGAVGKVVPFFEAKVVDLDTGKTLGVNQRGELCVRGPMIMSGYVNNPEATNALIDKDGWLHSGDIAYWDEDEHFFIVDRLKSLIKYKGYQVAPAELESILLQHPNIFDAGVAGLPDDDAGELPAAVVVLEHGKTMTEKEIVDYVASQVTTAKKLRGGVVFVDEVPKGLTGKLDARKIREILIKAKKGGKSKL
Sequence of Cytochrome P450 2C9 (P11712 whole entry): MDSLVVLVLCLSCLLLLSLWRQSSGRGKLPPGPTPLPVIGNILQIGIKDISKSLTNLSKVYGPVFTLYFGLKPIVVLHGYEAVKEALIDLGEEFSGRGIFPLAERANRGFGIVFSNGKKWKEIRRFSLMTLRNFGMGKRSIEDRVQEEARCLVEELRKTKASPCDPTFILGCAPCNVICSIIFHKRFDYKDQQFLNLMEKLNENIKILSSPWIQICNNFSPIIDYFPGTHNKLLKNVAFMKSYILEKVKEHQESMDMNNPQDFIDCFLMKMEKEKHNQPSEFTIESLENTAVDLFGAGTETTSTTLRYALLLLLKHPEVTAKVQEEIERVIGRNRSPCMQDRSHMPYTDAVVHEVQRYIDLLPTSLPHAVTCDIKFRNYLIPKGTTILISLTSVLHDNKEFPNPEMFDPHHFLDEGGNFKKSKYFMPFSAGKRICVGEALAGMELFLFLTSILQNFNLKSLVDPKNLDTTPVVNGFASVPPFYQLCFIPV
Sequence of Cytochrome P450 2C19 (P33261 whole entry): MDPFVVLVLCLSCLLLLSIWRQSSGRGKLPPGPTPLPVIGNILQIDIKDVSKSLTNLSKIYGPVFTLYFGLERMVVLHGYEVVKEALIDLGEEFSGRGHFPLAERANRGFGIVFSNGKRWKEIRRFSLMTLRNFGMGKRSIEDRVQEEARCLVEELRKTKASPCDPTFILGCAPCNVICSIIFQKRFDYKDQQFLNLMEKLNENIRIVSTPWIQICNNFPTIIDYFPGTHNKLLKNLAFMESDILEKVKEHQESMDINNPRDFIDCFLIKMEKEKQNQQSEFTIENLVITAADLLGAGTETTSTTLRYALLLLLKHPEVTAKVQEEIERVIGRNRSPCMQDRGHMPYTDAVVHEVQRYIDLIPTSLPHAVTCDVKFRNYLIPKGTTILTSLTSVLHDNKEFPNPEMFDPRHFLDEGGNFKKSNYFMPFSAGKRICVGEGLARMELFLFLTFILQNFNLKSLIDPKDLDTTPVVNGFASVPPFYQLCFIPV
Sequence of Cytochrome P450 3A4 (P08684 whole entry): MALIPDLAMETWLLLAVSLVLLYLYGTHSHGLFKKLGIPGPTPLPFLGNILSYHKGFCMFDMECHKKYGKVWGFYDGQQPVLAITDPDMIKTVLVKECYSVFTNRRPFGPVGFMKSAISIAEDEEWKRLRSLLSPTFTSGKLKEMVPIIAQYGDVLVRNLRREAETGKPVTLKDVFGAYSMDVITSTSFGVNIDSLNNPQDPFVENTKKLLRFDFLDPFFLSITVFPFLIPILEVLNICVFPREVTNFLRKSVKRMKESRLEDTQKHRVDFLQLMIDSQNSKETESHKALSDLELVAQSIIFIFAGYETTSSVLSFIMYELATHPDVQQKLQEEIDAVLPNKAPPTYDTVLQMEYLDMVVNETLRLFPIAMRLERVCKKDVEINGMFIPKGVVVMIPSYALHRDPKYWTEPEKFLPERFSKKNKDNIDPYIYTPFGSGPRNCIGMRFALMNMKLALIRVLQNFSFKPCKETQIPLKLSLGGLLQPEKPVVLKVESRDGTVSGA

Nc1nc(Nc2ccccc2)nc2c1ncn2[C@@H]1O[C@H](CO)[C@@H](O)[C@H]1O
EC50 [1]: > 112 µM (not active)
EC50 [2]: 0.224 µM (active)

Nc1c2c(nc3c1CCCC3)CCCC2.O=C(O)c1ccnc(O)c1
EC50 [3]: 2.99 µM (active)

CCOc1cc(/C=C/c2nc(O)c3ccccc3n2)ccc1O
IC50 (H9c2): 9.17 µM (active)

Cc1ccccc1OCCC(=O)N1CCN(S(=O)(=O)c2ccccc2F)CC1
EC50 [1]: > 112 µM (not active)
EC50 [2]: > 112 µM (not active)

O=C(CCc1ccccc1)Nc1nncs1
EC50 [1]: > 112 µM (not active)
AC50 (Cytochrome P450 2C19): 39.8 µM (inconclusive)
AC50 (Cytochrome P450 3A4): 12.6 µM (inconclusive)
AC50 (Cytochrome P450 2C9): 31.6 µM (inconclusive)
EC50 [2]: > 112 µM (not active)

CCOc1ccc(N/C=C/C(=O)c2ccc(OC)cc2)cc1
EC50 [1]: > 112 µM (not active)
EC50 [2]: > 112 µM (not active)

CCn1nnc(NC(=O)c2cccnc2)n1
EC50 [1]: > 112 µM (not active)
EC50 [2]: > 112 µM (not active)

CCOC(=O)c1ccc(-c2ccc(/C=C(\C#N)C(=O)NCC3CCCO3)o2)cc1 (configuration not stated)
AC50 (Cytochrome P450 1A2): 4.47 µM (inconclusive)
AC50 (Cytochrome P450 2C19): 2.51 µM (inconclusive)
AC50 (Cytochrome P450 2C9): 5.62 µM (inconclusive)
IC50 (H9c2): > 79 µM (inactive)

O=C(CCCSc1nc(O)c2c3c(sc2n1)CCC3)NCCCO
IC50 (H9c2): 19.9 µM (active)

CS(=O)(=O)N(Cc1ccc(C(=O)NCCSc2ccccn2)cc1)c1ccccc1
IC50 (H9c2): 17.4 µM (active)

CCOC(=O)c1ccccc1NC(=O)c1ccc2c(=O)n3c(nc2c1)CCCCC3
IC50 (H9c2): > 79 µM (inactive)

COc1cc(CNC2CCCCC2OC)cc(OC)c1 (configuration not stated)
IC50 [4]: 152 µM (active)

Clc1ccc(/C=C/c2nc3ccccc3[nH]2)cc1
EC50 [1]: 0.545 µM (active)
EC50 [2]: 1.05 µM (active)
AC50 [5]: 2.34 µM (active)
EC50 [6]: 9.68 µM (inconclusive)

Oc1ccc(-c2csc(Nc3cccnc3)n2)cc1
IC50 [4]: 18.2 µM (active)

COc1ccc(CNC(=O)CN(C)Cc2ccccc2F)cc1OC
EC50 [3]: 8.41 µM (active)

CC(=O)Nc1ccc(OC(=O)N(C)c2ccccc2)cc1
EC50 [1]: > 112 µM (not active)
EC50 [2]: 18.8 µM (active)

COc1ccc(C)cc1N(C(=O)c1snc(C(N)=O)c1N)C(C(=O)NC1CCCC1)c1ccc(F)cc1 (configuration not stated)
EC50 [3]: 1.33 µM (active)

Cc1cc(C)c(S(=O)(=O)c2ccccc2C)c(OCC(C)(C)C)n1
EC50 [3]: 2.37 µM (active)

COc1ccc(C(=O)NNC(=O)c2ccc3ccccc3n2)cc1
IC50 (H9c2): > 79 µM (inactive)

Cc1ccc(NC(=O)CN2CCc3ccccc3C2)cc1S(=O)(=O)N1CCOCC1
EC50 [3]: 3.76 µM (active)

O=C(CN1C(=O)c2cccc3cccc1c23)N1CCN(c2cccc(Cl)c2)CC1
EC50 [1]: > 112 µM (not active)
EC50 [2]: > 112 µM (not active)

CSc1nc(N2CCOCC2)c2c3c(sc2n1)CCCC3
EC50 [3]: 4.73 µM (active)

O=C(Cn1c(NCCCO)nc2ccccc21)c1ccc(Br)cc1
EC50 [3]: 2.99 µM (active)

CCOC(=O)CSc1nc2c(sc(=S)n2Cc2ccco2)c(=O)n1-c1ccccc1
EC50 [3]: 2.37 µM (active)

Oc1ccc(N2CCN(c3ccnc4cc(Cl)ccc34)CC2)cc1
IC50 [4]: 48.3 µM (active)

Cc1ccc(NC(=O)CSCC(=O)OCc2cc(=O)oc3cc(O)ccc23)c(C)c1
EC50 [3]: 5.96 µM (active)

CCS(=O)(=O)c1ccc2oc(=O)c(/C=C(\O)c3ccc(Cl)cc3)nc2c1
IC50 [4]: 99.7 µM (active)

C=CCOc1ccc(C2CC(C)=NN2c2ccccc2)cc1 (configuration not stated)
EC50 [3]: 4.22 µM (active)

CCCCN(Cc1ccccc1)C(=O)C1CCN(Cc2sccc2C)CC1
EC50 [3]: 2.99 µM (active)

CC(C)CC(=O)Nc1cccc(NC(=O)c2ccccc2Cl)c1
EC50 [1]: > 112 µM (not active)
EC50 [2]: 2.39 µM (active)

CCCCn1c(SCC(=O)OCC)nc2c(sc(=S)n2-c2ccccc2OC)c1=O
EC50 [3]: 1.68 µM (active)

O=C1CSC(Nc2ccc(O)cc2)=N1
IC50 [4]: 35.9 µM (active)

CN(CC(=O)Nc1cccc(F)c1)C(=O)CCCc1nc(O)c2ccccc2n1
IC50 (H9c2): > 79 µM (inactive)

CC(=O)Nc1cccc(-c2cc(NC(C)=O)c3ncc(-c4cccc(C(C)=O)c4)n3c2)c1
IC50 (H9c2): > 79 µM (inactive)

COc1cc(-c2cc(NC(C)=O)c3ncc(-c4cc(OC)c(OC)c(OC)c4)n3c2)cc(OC)c1OC
IC50 (H9c2): > 79 µM (inactive)

COc1ccc(CCCNC(=O)C2(C)Cc3c(-c4ccc(NC(C)=O)cc4)ccnc3O2)cc1 (configuration not stated)
IC50 (H9c2): > 79 µM (inactive)

COc1cc(/C=C/C(=O)OC(C)C(=O)Nc2c(C)n(C)n(-c3ccccc3)c2=O)ccc1O (configuration not stated)
IC50 [4]: 61.4 µM (active)

CCOC(=O)c1ccccc1OCc1cc(/C=N/NC(=O)c2cccnc2)ccc1OC
IC50 (H9c2): > 79 µM (inactive)

CN(C)c1ccc(/C=N/N(CCC(=O)NC(C)(C)C)C2=NS(=O)(=O)c3ccccc32)cc1
EC50 [7]: > 300 µM (not active)

CCOc1cc(/C=N/NC(=O)C(C)Sc2ccccn2)ccc1O (configuration not stated)
IC50 [4]: 39.8 µM (active)
